Data published in patent publication US4260605A, “Novel alkylated pregnanes, processes for their preparation and pharmaceutical compositions containing same” (Akzo N.V., priority 1979, dated 1981).

Tested on: dorsal shaved skin
Test: Rat seven-day intracutaneous skin thinning test (skin thinning and systemic effects)
Type: in vivo, rat (male, strain CFHB)
Details: for systemic effects: conclusion in words; for Final body weight / Combined adrenal weight / Thymus weight / Spleen weight / Treated skin weight: mean; for Final body weight: 8 mg intracutaneous (16×0.5 mg), autopsy seven days later, initial body weight 200±3 g, control 249; for Combined adrenal weight / Thymus weight / Spleen weight / Treated skin weight: 8 mg intracutaneous, seven days; for Combined adrenal weight: control 41.5; for Thymus weight: control 612; for Spleen weight: control 788; for Treated skin weight: 4×4 cm area of treated skin, control 1.630
Method: Male rats strain CFHB, initial body weight 200±3 g, were used in the experiment and divided in seven groups each containing 10 animals, six groups being used for testing the compounds a-f and the seventh group serving as controls.
Each anaesthetised animal in each group received 8 mg of the respective compound injected as 16×0.5 mg suspended in 0.05 ml of suspension fluid into a 4×4 cm area of dorsal shaved skin. […]
At autopsy seven days later the spleen, adrenals, thymus and body weight were recorded in addition to the 4×4 cm area of treated skin. Table B summarises the means of the results.

SMILES | systemic effects | Final body weight | Combined adrenal weight | Thymus weight | Spleen weight | Treated skin weight
CC1(C)O[C@@H]2C[C@H]3[C@@H]4CCC5=CC(=O)C=C[C@]5(C)[C@@]4(F)[C@@H](O)C[C@]3(C)[C@]2(C(=O)CO)O1 [h, triamcinolone acetonide] | have systemic effects | 142 g | 17.4 mg | 65 mg | 150 mg | 1.107 g
CCCC(=O)O[C@]1(C(=O)CC)CC[C@H]2[C@@H]3CCC4=CC(=O)CC[C@]4(C)[C@H]3[C@@H](O)C[C@@]21C [b, 11β,17dihydroxy-21-methyl-Δ^4pregnene-3,20-dione 17n-butyrate] |  | 249 g | 36.3 mg | 533 mg | 727 mg | 1.660 g
CCCCC(=O)O[C@]1(C(=O)CO)[C@@H](C)C[C@H]2[C@@H]3CCC4=CC(=O)C=C[C@]4(C)[C@@]3(F)[C@@H](O)C[C@@]21C [f, betamethasone 17valerate] | have systemic effects | 229 g | 21.5 mg | 96 mg | 445 mg | 1.445 g
CCCC(=O)O[C@]1(C(=O)CO)CC[C@H]2[C@@H]3CCC4=CC(=O)CC[C@]4(C)[C@H]3[C@@H](O)C[C@@]21C [g, hydrocortisone 17n-butyrate] | have systemic effects | 227 g | 34.7 mg | 96 mg | 503 mg | 1.410 g
